pEC50: −log10 of the molar value. Where two headings read alike, the source gives them in different places.

The experiment relates to HIV-IIIb. Kind of experiment: Test A: Antiviral Assay in MT4 Cells. In kind it is cell-based. The conditions noted are these: Human immunodeficiency virus 1, IIIB, MT4, 120 h. Summed up: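 Read-out: CellTiter-Glo chemiluminescence after 5-day incubation at 37 °C. Compounds tested as 3-fold serial dilutions (10 concentrations, quadruplicate) in RPMI 1640 with 10% FBS, on MT-4 cells pre-infected at 37 °C with HIV-IIIb at 0.004 m.o.i.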

The mark [1] stands for this setting: Table 2, MT-4 cells infected with HIV-IIIb, 5 days of incubation, CellTiter-Glo, read-out: EC50.
The mark [2] stands for this setting: Table 1, MT-4 cells infected with HIV-IIIb, 5 days of incubation, CellTiter-Glo, read-out: EC50.

For the molecule `Cc1cc2nc(-c3cnc(N4CCN(C(C)C)CC4)s3)sc2c(-c2ccc(Cl)cc2)c1[C@H](OC(C)(C)C)C(=O)O` [Compound 485, (S)-2-tert-butoxy-2-(7-(4-chlorophenyl)-2-(2-(4-isopropylpiperazin-1-yl)thiazol-5-yl)-5-methylbenzo[d]thiazol-6-yl)acetic acid], the negative-log EC50 (pEC50) under setting [1] was 7.82. `Cc1cc2nc(N3CCOC(c4ccccc4)C3)sc2c(-c2ccc(Cl)cc2)c1[C@H](OC(C)(C)C)C(=O)O` (stereo partly drawn) [Compound 327, (2S)-2-tert-butoxy-2-(7-(4-chlorophenyl)-5-methyl-2-(2-phenylmorpholino)benzo[d]thiazol-6-yl)acetic acid] showed a pEC50 of 6.79. Turning to `Cc1cc2nc(-c3ccnc(-c4ccc5[nH]c(=O)ccc5c4)c3)sc2c(-c2ccc(Cl)cc2)c1[C@H](OC(C)(C)C)C(=O)O` [Compound 459], the pEC50 under setting [1] is 7.55. With `Cc1cc2nc(-c3ccc4c(C5CCN(C)CC5)nn(C)c4c3)sc2c(-c2ccc(Cl)cc2)c1[C@H](OC(C)(C)C)C(=O)O` [Compound 267, (S)-2-tert-butoxy-2-(7-(4-chlorophenyl)-5-methyl-2-(1-methyl-3-(1-methylpiperidin-4-yl)-1H-indazol-6-yl)benzo[d]thiazol-6-yl)acetic acid], the negative-log EC50 (pEC50) under setting [1] is 7.96. For `CCCn1ncc2cc(-c3cc(-c4nc5cc(C)c([C@H](OC(C)(C)C)C(=O)O)c(-c6ccc(Cl)cc6)c5s4)ccn3)ccc21` [Compound 373], under setting [1], the pEC50 was 7.43.

On to `Cc1cc2nc(-c3ccc4nc(C)n(C5CCOCC5)c4c3)sc2c(-c2ccc(Cl)cc2)c1[C@H](OC(C)(C)C)C(=O)O` [Compound 412], for which, under setting [1], the negative-log EC50 (pEC50) was 7.80.

Take `Cc1cc2nc(-c3ccc4c(c3)c(C)nn4C)sc2c(-c2ccc(Cl)cc2)c1[C@H](OC(C)(C)C)C(=O)O` [Compound 254, (S)-2-tert-butoxy-2-(7-(4-chlorophenyl)-2-(1,3-dimethyl-1H-indazol-5-yl)-5-methylbenzo[d]thiazol-6-yl)acetic acid]: the pEC50 under setting [1] was 8.10.

Consider `COc1cnc(-c2ccc3c(cnn3C)c2)cc1-c1nc2cc(C)c([C@H](OC(C)(C)C)C(=O)O)c(-c3ccc(Cl)cc3)c2s1` [Compound 288, (S)-2-(tert-butoxy)-2-(7-(4-chlorophenyl)-2-(5-methoxy-2-(1-methyl-1H-indazol-5-yl)pyridin-4-yl)-5-methylbenzo[d]thiazol-6-yl)acetic acid], for which, under setting [1], the pEC50 is 7.19. With `Cc1cc2nc(-c3ccnc(N4CCN(C(C)(C)C)CC4)n3)sc2c(-c2ccc(Cl)cc2)c1[C@H](OC(C)(C)C)C(=O)O` [Compound 465, (S)-2-tert-butoxy-2-(2-(2-(4-tert-butylpiperazin-1-yl)pyrimidin-4-yl)-7-(4-chlorophenyl)-5-methylbenzo[d]thiazol-6-yl)acetic acid], the negative logarithm of the EC50 (pEC50) under setting [1] was 8.70.

In the case of `Cc1cc2[nH]ncc2cc1-c1cc(-c2nc3cc(C)c([C@H](OC(C)(C)C)C(=O)O)c(-c4ccc(Cl)cc4)c3s2)ccn1` [Compound 420], the pEC50 under setting [1] was 7.85.

Consider `Cc1cc2nc(-c3ccc4c(cnn4C)n3)sc2c(-c2ccc(Cl)cc2)c1[C@H](OC(C)(C)C)C(=O)O` [Compound 367], for which the negative logarithm of the EC50 (pEC50) under setting [1] is 8.22. With `Cc1cc2nc(-c3ccc4nc(C)n([C@@H]5CCN(C(C)C)C5)c4c3)sc2c(-c2ccc(Cl)cc2)c1[C@H](OC(C)(C)C)C(=O)O` [Compound 300, (S)-2-tert-butoxy-2-(7-(4-chlorophenyl)-2-(1-((R)-1-isopropylpyrrolidin-3-yl)-2-methyl-1H-benzo[d]imidazol-6-yl)-5-methylbenzo[d]thiazol-6-yl)acetic acid], the negative logarithm of the EC50 (pEC50) under setting [1] was 7.92. As to `Cc1cc2nc(-c3ccnc(-c4cccc5c4OCC(=O)N5C)c3)sc2c(-c2ccc(Cl)cc2)c1[C@H](OC(C)(C)C)C(=O)O` [Compound 390], the pEC50 under setting [1] was 8.05. In the case of `Cc1cc2cc(-c3cc(-c4nc5cc(C)c([C@H](OC(C)(C)C)C(=O)O)c(-c6ccc(Cl)cc6)c5s4)ccn3)cnc2[nH]1` [Compound 380], the pEC50 under setting [1] is 7.60. Consider `Cc1cc2nc(-c3nc(N4CCN(C)CC4)cs3)sc2c(-c2ccc(Cl)cc2)c1[C@H](OC(C)(C)C)C(=O)O` [Compound 247], for which the pEC50 under setting [1] is 8.00. `Cc1cc2nc(-c3cccc(-c4cn(C)nc4C)c3)sc2c(-c2ccc(Cl)cc2)c1[C@H](OC(C)(C)C)C(=O)O` [Compound 145]: under setting [2], the negative-log EC50 (pEC50) was 7.47. Turning to `Cc1cc2nc(-c3ccnc(-c4cnn(C)c4)c3)sc2c(-c2ccc(Cl)cc2)c1[C@H](OC(C)(C)C)C(=O)O` [Compound 154], under setting [2], the negative-log EC50 (pEC50) is 7.80. As to `Cc1cc2nc(-c3ccc4c(cnn4C4COC4)c3)sc2c(-c2ccc(Cl)cc2)c1[C@H](OC(C)(C)C)C(=O)O` [Compound 329, (S)-2-tert-butoxy-2-(7-(4-chlorophenyl)-5-methyl-2-(1-(oxetan-3-yl)-1H-indazol-5-yl)benzo[d]thiazol-6-yl)acetic acid], the pEC50 under setting [1] is 7.85. On to `Cc1cc2nc(-c3ccnc(N4CCN(C(C)C)CC4C)n3)sc2c(-c2ccc(Cl)cc2)c1[C@H](OC(C)(C)C)C(=O)O` (stereo in doubt) [Compound 467, (S)-2-tert-butoxy-2-(7-(4-chlorophenyl)-2-(2-((R)-4-isopropyl-2-methylpiperazin-1-yl)pyrimidin-4-yl)-5-methylbenzo[d]thiazol-6-yl)acetic acid], for which the negative logarithm of the EC50 (pEC50) under setting [1] was 8.30.

With `Cc1cc2nc(-c3ccnc(-c4cccc(C#N)c4)c3)sc2c(-c2ccc(Cl)cc2)c1[C@H](OC(C)(C)C)C(=O)O` [Compound 156], the negative-log EC50 (pEC50) under setting [2] was 7.59. Consider `Cc1cc2nc(-c3ccc4c(c3)nc(C)n4C3CCN(C)CC3)sc2c(-c2ccc(Cl)cc2)c1[C@H](OC(C)(C)C)C(=O)O` [Compound 294, (S)-2-(tert-butoxy)-2-(7-(4-chlorophenyl)-5-methyl-2-(2-methyl-1-(1-methylpiperidin-4-yl)-1H-benzo[d]imidazol-5-yl)benzo[d]thiazol-6-yl)acetic acid], for which, under setting [1], the pEC50 is 7.44. Turning to `Cc1cc2nc(-c3ccc4c(c3)OCCO4)sc2c(-c2ccc(Cl)cc2)c1[C@H](OC(C)(C)C)C(=O)O` [Compound 446], under setting [1], the negative-log EC50 (pEC50) was 6.76. With `Cc1cc2nc(-c3ccc4nc(C)n([C@@H]5CCNC5)c4c3)sc2c(-c2ccc(Cl)cc2)c1[C@H](OC(C)(C)C)C(=O)O` [Compound 299, (S)-2-tert-butoxy-2-(7-(4-chlorophenyl)-5-methyl-2-(2-methyl-1-((R)-pyrrolidin-3-yl)-1H-benzo[d]imidazol-6-yl)benzo[d]thiazol-6-yl)acetic acid], under setting [1], the pEC50 was 6.89.

In turn, `Cc1cc2nc(-c3nc(-c4ccc5c(cnn5C)c4)cs3)sc2c(-c2ccc(Cl)cc2)c1[C@H](OC(C)(C)C)C(=O)O` [Compound 310, (S)-2-tert-butoxy-2-(7-(4-chlorophenyl)-5-methyl-2-(4-(1-methyl-1H-indazol-5-yl)thiazol-2-yl)benzo[d]thiazol-6-yl)acetic acid] gave a pEC50 of 7.59. For the molecule `Cc1cc2nc(N3CCC(c4ccccc4)C3)sc2c(-c2ccc(Cl)cc2)c1[C@H](OC(C)(C)C)C(=O)O` (stereo partly shown) [Compound 126], the negative logarithm of the EC50 (pEC50) under setting [2] was 6.14. Same read-out and setting: to `Cc1cc2nc(-c3cccc(-c4cnn(C5CCCC5)c4)c3)sc2c(-c2ccc(Cl)cc2)c1[C@H](OC(C)(C)C)C(=O)O` [Compound 146] belongs 7.04; to `Cc1cc2nc(-c3ccnc(-c4cnc(N5CCOCC5)nc4)c3)sc2c(-c2ccc(Cl)cc2)c1[C@H](OC(C)(C)C)C(=O)O` [Compound 135], 7.77. Turning to `Cc1cc2nc(-c3cnc4c(c3)cc(C)n4C)sc2c(-c2ccc(Cl)cc2)c1[C@H](OC(C)(C)C)C(=O)O` [Compound 197, (S)-2-tert-butoxy-2-(7-(4-chlorophenyl)-2-(1,2-dimethyl-1H-pyrrolo[2,3-b]pyridin-5-yl)-5-methylbenzo[d]thiazol-6-yl)acetic acid], the negative logarithm of the EC50 (pEC50) under setting [1] is 7.92. For the molecule `Cc1cc2nc(-c3cnc(C)c(-c4ccc5c(cnn5C)c4)c3)sc2c(-c2ccc(Cl)cc2)c1[C@H](OC(C)(C)C)C(=O)O` [Compound 305, (S)-2-tert-butoxy-2-(7-(4-chlorophenyl)-5-methyl-2-(6-methyl-5-(1-methyl-1H-indazol-5-yl)pyridin-3-yl)benzo[d]thiazol-6-yl)acetic acid], under setting [1], the negative logarithm of the EC50 (pEC50) was 8.00.

Regarding `Cc1cc2nc(-c3ccc4c(C)nn(C)c4c3)sc2c(-c2ccc(Cl)cc2)c1[C@H](OC(C)(C)C)C(=O)O` [Compound 209, (S)-2-tert-butoxy-2-(7-(4-chlorophenyl)-2-(1,3-dimethyl-1H-indazol-6-yl)-5-methylbenzo[d]thiazol-6-yl)acetic acid], under setting [1], the negative-log EC50 (pEC50) was 7.80. Turning to `CCN1CCN(c2nccc(-c3nc4cc(C)c([C@H](OC(C)(C)C)C(=O)O)c(-c5ccc(Cl)cc5)c4s3)n2)CC1` [Compound 475, (S)-2-tert-butoxy-2-(7-(4-chlorophenyl)-2-(2-(4-ethylpiperazin-1-yl)pyrimidin-4-yl)-5-methylbenzo[d]thiazol-6-yl)acetic acid], the negative logarithm of the EC50 (pEC50) under setting [1] is 8.22. With `Cc1cc2nc(-c3ccnc(-c4ccc5c(c4)CC(=O)N5C)c3)sc2c(-c2ccc(Cl)cc2)c1[C@H](OC(C)(C)C)C(=O)O` [Compound 237, (S)-2-tert-butoxy-2-(7-(4-chlorophenyl)-5-methyl-2-(2-(1-methyl-2-oxoindolin-5-yl)pyridin-4-yl)benzo[d]thiazol-6-yl)acetic acid], the negative-log EC50 (pEC50) under setting [1] is 8.00.

As to `Cc1cc2nc(-n3cccc(-c4ccc5c(cnn5C)c4)c3=O)sc2c(-c2ccc(Cl)cc2)c1[C@H](OC(C)(C)C)C(=O)O` [Compound 117, (S)-2-tert-butoxy-2-(7-(4-chlorophenyl)-5-methyl-2-(3-(1-methyl-1H-indazol-5-yl)-2-oxopyridin-1(2H)-yl)benzo[d]thiazol-6-yl)acetic acid], the pEC50 under setting [2] is 7.85. As to `Cc1cc2nc(-c3ccnc(N4CCC(C)(O)CC4)n3)sc2c(-c2ccc(Cl)cc2)c1[C@H](OC(C)(C)C)C(=O)O` [Compound 332], the pEC50 under setting [1] is 8.30.

For the origin of these results see patent US8987250B2 (Gilead Sciences, Inc., priority 2012, dated 2015).
